According to ChEMBL document CHEMBL1130182, “C-terminal modifications of histidyl-N-benzylglycinamides to give improved inhibition of Ras farnesyltransferase, cellular activity, and anticancer activity in mice” (J Med Chem, 1997):
Square brackets hold non-standard residues; d marks the D form. Peptide text beside a SMILES is read from it. * marks the point of attachment. Cbz = O=C(OCc1ccccc1)*; Bn = c1ccc(C*)cc1

Tests used:
[1] = target: Protein farnesyltransferase (Rattus norvegicus, UniProt Q02293+Q04631); experiment: In vitro inhibition of rat farnesyltransferase.; assay type: protein-complex assay
[2] = species on record: Mus musculus; experiment: Minimum effective dose required to detect unfarnesylated Ras in H-Ras-transformed NIH3T3 (H-Ras-F) cells injected into mice.; assay type: functional

Structure (SMILES) | IC50 [1] [nM] | MED [2] [µM]
CCC(CC)(CNC(=O)CN(Cc1ccc(OCc2ccccc2)cc1)C(=O)[C@H](Cc1c[nH]cn1)NC(=O)OCc1ccccc1)c1ccccc1 | – | 0.2
O=C(CN(Cc1ccc(OCc2ccccc2)cc1)C(=O)[C@H](Cc1c[nH]cn1)NC(=O)OCc1ccccc1)NCC1(c2ccccc2)CCCC1 | 17 | 0.2
O=C(CN(Cc1ccc(OCc2ccccc2)cc1)C(=O)[C@H](Cc1c[nH]cn1)NC(=O)OCc1ccccc1)NCC1(c2ccccc2)CCC1 | 6 | 0.02
CC(C)(CNC(=O)CN(Cc1ccc(OCc2ccccc2)cc1)C(=O)[C@H](Cc1c[nH]cn1)NC(=O)OCc1ccccc1)c1ccccc1 | 4 | 0.05
CC(C)(Cc1ccccc1)NC(=O)CN(Cc1ccc(OCc2ccccc2)cc1)C(=O)[C@H](Cc1c[nH]cn1)NC(=O)OCc1ccccc1 | 270 | 1
C[C@@H](NC(=O)[C@H](Cc1c[nH]c2ccccc12)NC(=O)[C@H](COCc1ccccc1)NC(=O)[C@H](Cc1ccc(OCc2ccccc2)cc1)NC(=O)[C@H](Cc1c[nH]cn1)NC(=O)OCc1ccccc1)C(N)=O (Cbz-HY(Bn)S(Bn)W[dA]-NH2) | – | >100
O=C(CN(Cc1ccc(OCc2ccccc2)cc1)C(=O)[C@H](Cc1c[nH]cn1)NC(=O)OCc1ccccc1)NCCOCc1ccccc1 | 320 | 1
O=C(CN(Cc1ccc(OCc2ccccc2)cc1)C(=O)[C@H](Cc1c[nH]cn1)NC(=O)OCc1ccccc1)NCCc1ccccc1 | 62 | 0.1
O=C(CN(Cc1ccc(OCc2ccccc2)cc1)C(=O)[C@H](Cc1c[nH]cn1)NC(=O)OCc1ccccc1)NCC1(c2ccccc2)CC1 | 7 | 0.02

The next lines start with results.

IC50 [1] [nM] | Structure (SMILES) | MED [2] [µM]
5 | CCC(CNC(=O)CN(Cc1ccc(OCc2ccccc2)cc1)C(=O)[C@H](Cc1c[nH]cn1)NC(=O)OCc1ccccc1)c1ccccc1 (some centres not stated) | 0.05
16 | C[C@@H](CNC(=O)CN(Cc1ccc(OCc2ccccc2)cc1)C(=O)[C@H](Cc1c[nH]cn1)NC(=O)OCc1ccccc1)c1ccccc1 | 0.2
41 | C[C@@H](Cc1ccccc1)NC(=O)CN(Cc1ccc(OCc2ccccc2)cc1)C(=O)[C@H](Cc1c[nH]cn1)NC(=O)OCc1ccccc1 | 0.2
3 | C[C@H](Cc1ccccc1)NC(=O)CN(Cc1ccc(OCc2ccccc2)cc1)C(=O)[C@H](Cc1c[nH]cn1)NC(=O)OCc1ccccc1 | 0.05
25 | CCCC(CNC(=O)CN(Cc1ccc(OCc2ccccc2)cc1)C(=O)[C@H](Cc1c[nH]cn1)NC(=O)OCc1ccccc1)c1ccccc1 (some centres not stated) | 0.2
8 | CC(CNC(=O)CN(Cc1ccc(OCc2ccccc2)cc1)C(=O)[C@H](Cc1c[nH]cn1)NC(=O)OCc1ccccc1)c1ccccc1 (some centres not stated) | 0.05
5 | C[C@H](CNC(=O)CN(Cc1ccc(OCc2ccccc2)cc1)C(=O)[C@H](Cc1c[nH]cn1)NC(=O)OCc1ccccc1)c1ccccc1 | 0.05
2 | N#CC(CNC(=O)CN(Cc1ccc(OCc2ccccc2)cc1)C(=O)[C@H](Cc1c[nH]cn1)NC(=O)OCc1ccccc1)c1ccccc1 (some centres not stated) | 0.05
